In ChEMBL document CHEMBL1145087 (J Med Chem, 2003):

Legend:
Glucocorticoid receptor = target: T1, Glucocorticoid receptor (Homo sapiens, UniProt P04150); test: Inhibition of Dexamethasone binding to human glucocorticoid receptor expressed in baculovirus […] cells
T1 sequence (P04150 whole entry): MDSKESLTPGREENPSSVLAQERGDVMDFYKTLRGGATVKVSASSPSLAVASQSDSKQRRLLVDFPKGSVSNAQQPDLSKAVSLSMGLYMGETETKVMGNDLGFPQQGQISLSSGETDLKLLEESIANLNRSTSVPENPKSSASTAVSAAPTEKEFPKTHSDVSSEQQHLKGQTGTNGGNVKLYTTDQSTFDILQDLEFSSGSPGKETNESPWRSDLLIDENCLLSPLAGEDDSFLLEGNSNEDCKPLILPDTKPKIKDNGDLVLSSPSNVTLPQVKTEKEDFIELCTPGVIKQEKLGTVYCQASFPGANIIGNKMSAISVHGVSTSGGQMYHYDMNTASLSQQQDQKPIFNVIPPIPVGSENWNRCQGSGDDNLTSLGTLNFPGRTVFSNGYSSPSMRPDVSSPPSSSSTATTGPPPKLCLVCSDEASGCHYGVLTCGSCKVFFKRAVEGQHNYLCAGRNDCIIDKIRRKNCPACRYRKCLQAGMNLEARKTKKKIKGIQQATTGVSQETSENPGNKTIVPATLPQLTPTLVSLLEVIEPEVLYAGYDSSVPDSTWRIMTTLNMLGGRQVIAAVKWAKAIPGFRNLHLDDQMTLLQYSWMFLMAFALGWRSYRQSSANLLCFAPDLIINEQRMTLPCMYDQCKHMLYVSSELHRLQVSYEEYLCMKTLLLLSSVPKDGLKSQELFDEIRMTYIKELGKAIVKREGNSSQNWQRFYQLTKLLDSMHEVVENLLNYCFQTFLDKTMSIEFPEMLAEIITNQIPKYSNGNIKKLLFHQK

Androgen receptor = target: T2, Androgen receptor (Homo sapiens, UniProt P10275)
T2 sequence (P10275 whole entry): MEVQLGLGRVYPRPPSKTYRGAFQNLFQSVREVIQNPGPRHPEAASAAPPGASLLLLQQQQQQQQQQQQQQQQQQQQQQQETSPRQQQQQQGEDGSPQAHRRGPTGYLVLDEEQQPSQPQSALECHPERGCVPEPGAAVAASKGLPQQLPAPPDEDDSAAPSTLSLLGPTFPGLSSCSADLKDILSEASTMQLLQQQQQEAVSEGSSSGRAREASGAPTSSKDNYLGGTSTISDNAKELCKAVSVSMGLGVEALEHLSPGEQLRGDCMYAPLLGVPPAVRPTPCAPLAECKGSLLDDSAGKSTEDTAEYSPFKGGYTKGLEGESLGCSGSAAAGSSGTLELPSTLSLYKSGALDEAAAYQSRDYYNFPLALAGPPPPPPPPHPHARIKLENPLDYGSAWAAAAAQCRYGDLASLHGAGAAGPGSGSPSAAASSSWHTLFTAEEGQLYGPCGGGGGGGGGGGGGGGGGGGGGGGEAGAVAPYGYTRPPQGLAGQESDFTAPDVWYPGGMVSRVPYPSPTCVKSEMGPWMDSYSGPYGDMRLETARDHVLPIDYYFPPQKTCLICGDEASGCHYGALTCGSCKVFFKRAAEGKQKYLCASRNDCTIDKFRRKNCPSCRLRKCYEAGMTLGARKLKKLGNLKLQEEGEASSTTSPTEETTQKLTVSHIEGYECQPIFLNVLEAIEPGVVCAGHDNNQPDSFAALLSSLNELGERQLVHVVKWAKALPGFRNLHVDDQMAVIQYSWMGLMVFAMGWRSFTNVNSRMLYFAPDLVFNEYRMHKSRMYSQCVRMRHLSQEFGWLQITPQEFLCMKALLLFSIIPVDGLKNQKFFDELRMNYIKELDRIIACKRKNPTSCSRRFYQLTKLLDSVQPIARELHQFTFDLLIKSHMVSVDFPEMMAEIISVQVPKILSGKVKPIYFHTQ
Description: Inhibition of human androgen receptor at 10e-12 to 10e-5 M

Row | Structure (SMILES) | Ki (Glucocorticoid receptor) | IC50 (Androgen receptor)
1 | CC1=CC(C)(C)Nc2ccc3c(c21)/C(=C/c1ccsc1)Oc1ccc(F)cc1-3 | 84 nM | 215 nM
2 | CCc1ccccc1/C=C1\Oc2ccc(F)cc2-c2ccc3c(c21)C(C)=CC(C)(C)N3 | 270 nM | 
3 | CC1=CC(C)(C)Nc2ccc3c(c21)/C(=C/c1ccccc1C)Oc1c(F)cccc1-3 | 232 nM | 
4 | CC1=CC(C)(C)Nc2ccc3c(c21)/C(=C/c1ccccc1)Oc1c(F)cccc1-3 | 321 nM | 900 nM
5 | CC1=CC(C)(C)Nc2ccc3c(c21)/C(=C/c1ccncc1C)Oc1ccc(F)cc1-3 | 232 nM | 
